Results published in patent US7807673B2, “2-pyrimidinyl pyrazolopyridine ErbB kinase inhibitors” (GlaxoSmithKline LLC, priority 2005, dated 2010).
pIC50: −log10 of the molar value.

Legend:
[1] = molecular target: T1, ErbB2 or EGFR; test: ErbB enzyme substrate phosphorylation assay (HTRF), Method B (enzyme pre-incubated with compound 1 hour); format: biochemical; details: Table 1, enzyme Method B: enzyme mix incubated with compound 1 hour at 20° C., reaction started with substrate mix; class over ErbB2 or EGFR
T1 construct: enzymes purified from a baculovirus expression system
How it was run: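 Baculovirus-expressed kinase (0.8 nM EGFR or 10 nM ErbB2 in enzyme mix) phosphorylated biotinylated Peptide C (0.8 µM in substrate mix) with 20 µM ATP in substrate mix, MOPS pH 7.5, MnCl2, 90 min at 20 °C. Method A started with enzyme; Method B pre-incubated enzyme with compound 1 h at 20 °C. HTRF read-out; IC50 from 12-point curve (0.00027–47.6 µM), reported as pIC50.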

[2] = tested on: BT474 and HN5 tumor cell lines; test: Methylene blue growth inhibition assay (cellular Method A); format: cell-based; details: Homo sapiens, BT-474 and HN5, 72 h; Table 2, Method A methylene blue, 3 days; class over BT474 and HN5;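 further: class counts the more potent of the two cell lines (BT474 or HN5)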
Experimental: (§1) Human breast (BT474) and head and neck (HN5) were cultured in low glucose DMEM (Life Technologies 12320-032) containing 10% fetal bovine serum (FBS). Human colon tumor cells (Colo205) were cultured in DMEM (Invitrogen, 10564) containing 10% FBS. The SV40 transformed human mammary epithelial cell line to HB4a was transfected with either human H-ras cDNA (HB4a r4.2) or the human c-ErbB2 cDNA (HB4a c5.2). The HB4a clones were cultured in RPMI containing 10% FBS, insulin ([…]), hydrocortisone ([…]), supplemented with the selection agent hygromycin B ([…]). All lines were grown in a humidified incubator at 37° C. in 95% air, 5% CO2. Cells were harvested using trypsin/EDTA, counted using a haemocytometer, and plated in 100 microliters of the appropriate media, at the following densities, in a 96-well tissue culture plate (Falcon 3075): BT474 10,000 cells/well, HN5 3,000 cells/well. The next day, compounds were diluted in DMEM containing […] gentamicin, at twice the final required concentration, from 10 mM stock solutions in DMSO. 100 microliters/well of these dilutions were added to the 100 microliters of media currently on the cell plates. Medium containing 0.6% DMSO was added to control wells. Compounds diluted in DMEM were added to all cell lines. The final concentration of DMSO in all wells was 0.3%. Cells were returned to the incubator (37° C., […]) for 3 days. Medium was then removed by aspiration. Cell biomass was estimated by staining cells with 90 microliters per well methylene blue (Sigma M9140, 0.5% in 1:1 ethanol:water), and incubation at rt for at least 30 minutes. Stain was removed, and the plates rinsed by immersion in deionized water and air-dried. To release stain from the cells 100 microliters of solubilization solution was added (1% N-lauroyl sarcosine, Sodium salt, Sigma L5125, in PBS), and plates were shaken gently for about 30 minutes. Optical density at 620 nm was measured on a microplate reader. Percent inhibition of cell growth was calculated relative to vehicle treated control wells. Concentration of compound that inhibits 50% of control cell growth (IC50) was interpolated using nonlinear regression (Levenberg-Marquardt) and the equation, y=Vmax*(1−(x/(K+x)))+Y2, where “K” was equal to the IC50. Method B: Celltiter Glo® Growth Inhibition Assays

[3] = tested on: Colo205 tumor cell lines; test: as above; format: cell-based; details: Homo sapiens, COLO 205, 72 h, Table 3, Method A methylene blue, 3 days
Experimental: as §1

[4] = tested on: BT474 and HN5 tumor cell lines; test: Celltiter Glo growth inhibition assay (cellular Method B); format: cell-based; details: Homo sapiens, BT-474, 72 h; Table 2, Method B Celltiter Glo, 3 days; class over BT474 and HN5;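 further: class counts the more potent of the two cell lines (BT474 or HN5)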
How it was run: (§2)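 BT474, HN5 and Colo205 cells were each grown in their own 10% FBS medium, then exposed to compound for 3 days at 37 °C with 0.3% final DMSO. Growth was read by CellTiter-Glo luminescence as percent inhibition versus vehicle, and IC50 was interpolated by nonlinear regression.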

[5] = tested on: Colo205 tumor cell lines; test: as above; format: cell-based; details: Homo sapiens, COLO 205, 72 h, Table 3, Method B Celltiter Glo, 3 days
How it was run: as §2

Q: Which “Activity (Method)” value [1] does the source give for O=C(Cc1cccs1)Nc1cccc(-c2nn3ccccc3c2-c2ccnc(Nc3cccc(-c4cnco4)c3)n2)c1 [Example 1, N-{3-[3-(2-{[3-(1,3-oxazol-5-yl)phenyl]amino}-4-pyrimidinyl)pyrazolo[1,5-a]pyridin-2-yl]phenyl}-2-(2-thienyl)acetamide] here?
A: The value was “+++ (B) (at least one pIC50 measurement of greater than 7 against either ErbB2 or EGFR)”.

Q: What about the pIC50 [2] of the same molecule?
A: The pIC50 was 6.00 to 7.00.

Q: What about the pIC50 [3] of the same molecule?
A: Its pIC50 is 6.00 to 7.00.

Q: For CN(C)CCCNc1ccc(Nc2nccc(-c3c(-c4cccc(NC(=O)Cc5cccs5)c4)nn4ccccc34)n2)cc1F [Example 2, N-[3-(3-{2-[(4-{[3-(Dimethylamino)propyl]amino}-3-fluorophenyl)amino]-4-pyrimidinyl}pyrazolo[1,5-a]pyridin-2-yl)phenyl]-2-(2-thienyl)acetamide], which “Activity (Method)” value [1] is on record?
A: The value was “+++ (B) (at least one pIC50 measurement of greater than 7 against either ErbB2 or EGFR)”.

Q: What about the pIC50 [2] of the same molecule?
A: Its pIC50 is greater than 7.00.

Q: What about the pIC50 [3] of the same molecule?
A: The pIC50 was 6.00 to 7.00.

Q: For O=C(Cc1cccs1)Nc1cccc(-c2nn3ccccc3c2-c2ccnc(Nc3cccc(F)c3)n2)c1 [Example 9, N-[3-(3-{2-[(3-Fluorophenyl)amino]-4-pyrimidinyl}pyrazolo[1,5-a]pyridin-2-yl)phenyl]-2-(2-thienyl)acetamide], which “Activity (Method)” value [1] is on record?
A: The value was “+++ (B) (at least one pIC50 measurement of greater than 7 against either ErbB2 or EGFR)”.

Q: What about the pIC50 [2] of the same molecule?
A: Its pIC50 is less than 6.00.

Q: What about the pIC50 [3] of the same molecule?
A: Its pIC50 is less than 6.00.

Q: For O=C(Cc1cccs1)Nc1cccc(-c2nn3ccccc3c2-c2ccnc(Nc3cccc(OCCN4CCCC4)c3)n2)c1 [Example 10, N-[3-(3-{2-[(3-{[2-(1-Pyrrolidinyl)ethyl]oxy}phenyl)amino]-4-pyrimidinyl}pyrazolo[1,5-a]pyridin-2-yl)phenyl]-2-(2-thienyl)acetamide], which “Activity (Method)” value [1] is on record?
A: Its value is “+++ (B) (at least one pIC50 measurement of greater than 7 against either ErbB2 or EGFR)”.

Q: And the pIC50 [2]?
A: The pIC50 was 6.00 to 7.00.

Q: What about the pIC50 [3] of the same molecule?
A: Its pIC50 is 6.00 to 7.00.

Q: With O=C(Cc1cccs1)Nc1cccc(-c2nn3ccccc3c2-c2ccnc(Nc3cccc(OCCCN4CCOCC4)c3)n2)c1 [Example 11, N-[3-(3-{2-[3-{[3-(4-Morpholinyl)propyl]oxy}phenylamino]-4-pyrimidinyl}pyrazolo[1,5-a]pyridin-2-yl)phenyl]-2-(2-thienyl)acetamide] as the molecule, how does the “Activity (Method)” value [1] read?
A: Its value is “+++ (B) (at least one pIC50 measurement of greater than 7 against either ErbB2 or EGFR)”.

Q: And the pIC50 [2]?
A: The pIC50 was 6.00 to 7.00.

Q: What about the pIC50 [3] of the same molecule?
A: The pIC50 was 6.00 to 7.00.

Q: What does the source list for CN(C)CCCOc1cccc(Nc2nccc(-c3c(-c4cccc(NC(=O)Cc5cccs5)c4)nn4ccccc34)n2)c1 [Example 12, N-[3-(3-{2-[(3-{[3-(Dimethylamino)propyl]oxy}phenyl)-amino]-4-pyrimidinyl}pyrazolo[1,5-a]pyridin-2-yl)phenyl]-2-(2-thienyl)acetamide]?
A: Activity (Method) [1]: +++ (B) (at least one pIC50 measurement of greater than 7 against either ErbB2 or EGFR); pIC50 [2]: 6.00 to 7.00; pIC50 [3]: 6.00 to 7.00

Q: With O=C(Cc1cccs1)Nc1cccc(-c2nn3ccccc3c2-c2ccnc(Nc3cccc(OCCCN4CCCC4)c3)n2)c1 [Example 13, N-[3-(3-{2-[(3-{[3-(1-Pyrrolidinyl)propyl]oxy}phenyl)amino]-4-pyrimidinyl}pyrazolo[1,5-a]pyridin-2-yl)phenyl]-2-(2-thienyl)acetamide] as the molecule, how does the “Activity (Method)” value [1] read?
A: The value was “+++ (B) (at least one pIC50 measurement of greater than 7 against either ErbB2 or EGFR)”.

Q: What about the pIC50 [2] of the same molecule?
A: Its pIC50 is 6.00 to 7.00.

Q: What about the pIC50 [3] of the same molecule?
A: Its pIC50 is 6.00 to 7.00.

Q: Which results are given for CCN(CC)CCOc1cccc(Nc2nccc(-c3c(-c4cccc(NC(=O)Cc5cccs5)c4)nn4ccccc34)n2)c1 [Example 14, N-[3-(3-{2-[(3-{[2-(Diethylamino)ethyl]oxy}phenyl)amino]-4-pyrimidinyl}pyrazolo[1,5-a]pyridin-2-yl)phenyl]-2-(2-thienyl)acetamide]?
A: Activity (Method) [1]: +++ (B) (at least one pIC50 measurement of greater than 7 against either ErbB2 or EGFR); pIC50 [2]: 6.00 to 7.00; pIC50 [3]: 6.00 to 7.00

Q: How did the “Activity (Method)” value [1] turn out when CN(C)CCOc1cccc(Nc2nccc(-c3c(-c4cccc(NC(=O)Cc5cccs5)c4)nn4ccccc34)n2)c1 [Example 15, N-[3-(3-{2-[(3-{[2-(Dimethylamino)ethyl]oxy}phenyl)amino]-4-pyrimidinyl}pyrazolo[1,5-a]pyridin-2-yl)phenyl]-2-(2-thienyl)acetamide] was run?
A: The value was “+++ (B) (at least one pIC50 measurement of greater than 7 against either ErbB2 or EGFR)”.

Q: What about the pIC50 [2] of the same molecule?
A: Its pIC50 is 6.00 to 7.00.

Q: And the pIC50 [3]?
A: The pIC50 was 6.00 to 7.00.

Q: For O=C(Cc1cccs1)Nc1cccc(-c2nn3ccccc3c2-c2ccnc(Nc3ccc4c(c3)CNCC4)n2)c1 [Example 16, N-(3-{3-[2-(1,2,3,4-Tetrahydro-7-isoquinolinylamino)-4-pyrimidinyl]pyrazolo[1,5-a]pyridin-2-yl}phenyl)-2-(2-thienyl)acetamide], which “Activity (Method)” value [1] is on record?
A: Its value is “+++ (B) (at least one pIC50 measurement of greater than 7 against either ErbB2 or EGFR)”.

Q: What about the pIC50 [2] of the same molecule?
A: Its pIC50 is 6.00 to 7.00.

Q: What about the pIC50 [3] of the same molecule?
A: The pIC50 was 6.00 to 7.00.

Q: How did the “Activity (Method)” value [1] turn out when Cc1ccc(-c2nn3ccccc3c2-c2ccnc(Nc3cc(OCCN(C)C)ccc3C)n2)cc1NC(=O)Cc1cccs1 [Example 57, N-[5-(3-{2-[(5-{[2-(Dimethylamino)ethyl]oxy}-2-methylphenyl)amino]-4-pyrimidinyl}pyrazolo[1,5-a]pyridin-2-yl)-2-methylphenyl]-2-(2-thienyl)acetamide] was run?
A: Its value is “++ (B) (at least one pIC50 measurement greater than 6 against either ErbB2 or EGFR but no measurement greater than pIC50 of 7)”.

Q: What about the pIC50 [4] of the same molecule?
A: The pIC50 was less than 6.00.

Q: What about the pIC50 [5] of the same molecule?
A: The pIC50 was less than 6.00.

Q: How did the “Activity (Method)” value [1] turn out when Cc1ccc(-c2nn3ccccc3c2-c2ccnc(Nc3cccc(OCCN(C)C)c3)n2)cc1NC(=O)Cc1cccs1 [Example 58, N-[5-(3-{2-[(3-{[2-(Dimethylamino)ethyl]oxy}phenyl)amino]-4-pyrimidinyl}pyrazolo[1,5-a]pyridin-2-yl)-2-methylphenyl]-2-(2-thienyl)acetamide] was run?
A: The value was “++ (B) (at least one pIC50 measurement greater than 6 against either ErbB2 or EGFR but no measurement greater than pIC50 of 7)”.

Q: What about the pIC50 [4] of the same molecule?
A: Its pIC50 is 6.00 to 7.00.

Q: What about the pIC50 [5] of the same molecule?
A: Its pIC50 is 6.00 to 7.00.

Q: With Cc1ccc(-c2nn3ccccc3c2-c2ccnc(Nc3ccc4c(c3)CN(C)CC4)n2)cc1NC(=O)Cc1cccs1 [Example 59, N-[2-Methyl-5-(3-{2-[(2-methyl-1,2,3,4-tetrahydro-7-isoquinolinyl)amino]-4-pyrimidinyl}pyrazolo[1,5-a]pyridin-2-yl)phenyl]-2-(2-thienyl)acetamide] as the molecule, how does the “Activity (Method)” value [1] read?
A: Its value is “++ (B) (at least one pIC50 measurement greater than 6 against either ErbB2 or EGFR but no measurement greater than pIC50 of 7)”.

Q: What about the pIC50 [4] of the same molecule?
A: Its pIC50 is 6.00 to 7.00.

Q: What about the pIC50 [5] of the same molecule?
A: The pIC50 was less than 6.00.

Q: For O=C(Cc1cccs1)Nc1cc(-c2nn3ccccc3c2-c2ccnc(Nc3cccc(CN4CCCC4)c3)n2)ccc1F [Example 61, N-{2-Fluoro-5-[3-(2-{[3-(1-pyrrolidinylmethyl)phenyl]amino}-4-pyrimidinyl)pyrazolo[1,5-a]pyridin-2-yl]phenyl}-2-(2-thienyl)acetamide], which “Activity (Method)” value [1] is on record?
A: The value was “++ (B) (at least one pIC50 measurement greater than 6 against either ErbB2 or EGFR but no measurement greater than pIC50 of 7)”.

Q: What about the pIC50 [4] of the same molecule?
A: The pIC50 was 6.00 to 7.00.

Q: And the pIC50 [5]?
A: Its pIC50 is 6.00 to 7.00.

Q: How did the “Activity (Method)” value [1] turn out when Cc1ccc(OCCN(C)C)cc1Nc1nccc(-c2c(-c3ccc(F)c(NC(=O)Cc4cccs4)c3)nn3ccccc23)n1 [Example 62, N-[5-(3-{2-[(5-{[2-(Dimethylamino)ethyl]oxy}-2-methylphenyl)amino]-4-pyrimidinyl}pyrazolo[1,5-a]pyridin-2-yl)-2-fluorophenyl]-2-(2-thienyl)acetamide] was run?
A: The value was “+ (B) (no pIC50 measurement greater than 6 against either ErbB2 or EGFR)”.

Q: What about the pIC50 [4] of the same molecule?
A: Its pIC50 is less than 6.00.

Q: What about the pIC50 [5] of the same molecule?
A: Its pIC50 is 6.00 to 7.00.
